Measured values as given in ChEMBL document CHEMBL2413072, “Synthesis and in vitro anticancer studies of novel C-2 arylidene congeners of lantadenes” (2013).

What was measured:
Format in all cases: functional
Malme-3M [1] = test: Growth inhibition of human MALME-3M cells assessed as cell growth at 10^-4 M by sulforhodamine B assay; conditions: read-out: Activity
LOX IMVI = test: Growth inhibition of human LOXIMVI cells by sulforhodamine B assay
ACHN = test: Growth inhibition of human ACHN cells by sulforhodamine B assay
TK-10 [2] = test: Growth inhibition of human TK10 cells assessed as cell growth at 10^-7 M by sulforhodamine B assay; conditions: read-out: Activity
SNB-19 = test: Growth inhibition of human SNB19 cells assessed as cell growth at 10^-8 M by sulforhodamine B assay; conditions: read-out: Activity
UACC-257 = test: Growth inhibition of human UACC257 cells by sulforhodamine B assay
MOLT-4 = test: Growth inhibition of human MOLT4 cells by sulforhodamine B assay
HL-60(TB) = test: Growth inhibition of human HL-60(TB) cells assessed as cell growth at 10^-8 M by sulforhodamine B assay; conditions: read-out: Activity
[3] = Growth inhibition of human Hs 578T cells assessed as cell growth at 10^-7 M by sulforhodamine B assay; conditions: read-out: Activity
SR = test: Growth inhibition of human SR cells by sulforhodamine B assay
T47D = test: Growth inhibition of human T47D cells assessed as cell growth at 10^-7 M by sulforhodamine B assay; conditions: read-out: Activity
OVCAR-4 = test: Growth inhibition of human OVCAR4 cells by sulforhodamine B assay
SF-539 = test: Growth inhibition of human SF539 cells by sulforhodamine B assay
SF-268 [4] = test: Growth inhibition of human SF268 cells assessed as cell growth at 10^-7 M by sulforhodamine B assay; conditions: read-out: Activity
OVCAR-3 = test: Growth inhibition of human OVCAR3 cells assessed as cell growth at 10^-6 M by sulforhodamine B assay; conditions: read-out: Activity
[5] = Growth inhibition of human HCC2998 cells assessed as cell growth at 10^-7 M by sulforhodamine B assay; conditions: HCC 2998, read-out: Activity
Malme-3M [6] = test: Growth inhibition of human MALME-3M cells assessed as cell growth at 10^-6 M by sulforhodamine B assay; conditions: read-out: Activity
RPMI-8226 = test: Growth inhibition of human RPMI8226 cells assessed as cell growth at 10^-4 M by sulforhodamine B assay; conditions: read-out: Activity
CAKI-1 = test: Growth inhibition of human CAKI-1 cells assessed as cell growth at 10^-4 M by sulforhodamine B assay; conditions: read-out: Activity
MDA-MB-435 = test: Growth inhibition of human MDA-MB-435 cells assessed as cell growth at 10^-4 M by sulforhodamine B assay; conditions: read-out: Activity
TK-10 [7] = test: Growth inhibition of human TK10 cells by sulforhodamine B assay
NCI-H460 = test: Growth inhibition of human NCI-H460 cells assessed as cell growth at 10^-4 M by sulforhodamine B assay; conditions: read-out: Activity
MCF7 = test: Growth inhibition of human MCF7 cells assessed as cell growth at 10^-7 M by sulforhodamine B assay; conditions: read-out: Activity
M14 = test: Growth inhibition of human M14 cells assessed as cell growth at 10^-6 M by sulforhodamine B assay; conditions: read-out: Activity
BT-549 = test: Growth inhibition of human BT549 cells assessed as cell growth at 10^-6 M by sulforhodamine B assay; conditions: read-out: Activity
HOP-92 = test: Growth inhibition of human HOP92 cells assessed as cell growth at 10^-6 M by sulforhodamine B assay; conditions: read-out: Activity
IGROV-1 = test: Growth inhibition of human IGROV1 cells assessed as cell growth at 10^-6 M by sulforhodamine B assay; conditions: read-out: Activity
RXF 393 = test: Growth inhibition of human RXF393 cells by sulforhodamine B assay
SK-MEL-5 = test: Growth inhibition of human SK-MEL-5 cells assessed as cell growth at 10^-8 M by sulforhodamine B assay; conditions: read-out: Activity
SF-268 [8] = test: Growth inhibition of human SF268 cells by sulforhodamine B assay
[9] = read-out: LC50 (the source's name)
[10] = read-out: pLC50 (the source's name) (converted)

C/C=C(/C)C(=O)O[C@@H]1CC(C)(C)C[C@H]2C3=CC[C@@H]4[C@@]5(C)CCC(=O)C(C)(C)[C@@H]5CC[C@@]4(C)[C@]3(C)CC[C@@]12C(=O)O [LANTADENE A]
growth at 100 µM (Malme-3M [1]): 17%
GI50 (LOX IMVI; read-out: GI50): 7.8 µM
CC50 (LOX IMVI; [9]): > 100 µM
TGI (LOX IMVI; read-out: TGI): > 100 µM
GI50 (LOX IMVI; read-out: pGI50 (converted)): 7.76 µM
CC50 (LOX IMVI; [10]): > 100 µM
TGI (LOX IMVI; read-out: pTGI (converted)): > 100 µM
GI50 (ACHN; read-out: GI50): 4.94 µM
CC50 (ACHN; [9]): > 100 µM
TGI (ACHN; read-out: TGI): > 100 µM
GI50 (ACHN; read-out: pGI50 (converted)): 4.9 µM
CC50 (ACHN; [10]): > 100 µM
TGI (ACHN; read-out: pTGI (converted)): > 100 µM
growth at 0.1 µM (TK-10 [2]): 102%
growth at 0.01 µM (SNB-19): 93%
GI50 (UACC-257; read-out: GI50): 4.81 µM
CC50 (UACC-257; [9]): > 100 µM
TGI (UACC-257; read-out: TGI): > 100 µM
GI50 (UACC-257; read-out: pGI50 (converted)): 4.79 µM
CC50 (UACC-257; [10]): > 100 µM
TGI (UACC-257; read-out: pTGI (converted)): > 100 µM
GI50 (MOLT-4; read-out: GI50): 3.34 µM
CC50 (MOLT-4; [9]): > 100 µM
TGI (MOLT-4; read-out: TGI): > 100 µM
GI50 (MOLT-4; read-out: pGI50 (converted)): 3.31 µM
CC50 (MOLT-4; [10]): > 100 µM
TGI (MOLT-4; read-out: pTGI (converted)): > 100 µM
growth at 0.01 µM (HL-60(TB)): 100%
growth at 0.1 µM [3]: 93%
GI50 (SR; read-out: GI50): 3 µM
CC50 (SR; [9]): > 100 µM
TGI (SR; read-out: TGI): > 100 µM
GI50 (SR; read-out: pGI50 (converted)): 3.02 µM
CC50 (SR; [10]): > 100 µM
TGI (SR; read-out: pTGI (converted)): > 100 µM
growth at 0.1 µM (T47D): 99%
GI50 (OVCAR-4; read-out: GI50): 5.64 µM
CC50 (OVCAR-4; [9]): > 100 µM
TGI (OVCAR-4; read-out: TGI): > 100 µM
GI50 (OVCAR-4; read-out: pGI50 (converted)): 5.62 µM
CC50 (OVCAR-4; [10]): > 100 µM
TGI (OVCAR-4; read-out: pTGI (converted)): > 100 µM
GI50 (SF-539; read-out: GI50): 6.51 µM
CC50 (SF-539; [9]): > 100 µM
TGI (SF-539; read-out: TGI): > 100 µM
GI50 (SF-539; read-out: pGI50 (converted)): 6.46 µM
CC50 (SF-539; [10]): > 100 µM
TGI (SF-539; read-out: pTGI (converted)): > 100 µM
growth at 0.1 µM (SF-268 [4]): 101%
growth at 1 µM (OVCAR-3): 105%
growth at 0.1 µM [5]: 108%
growth at 1 µM (Malme-3M [6]): 91%
growth at 100 µM (RPMI-8226): 10%
growth at 100 µM (CAKI-1): 20%
growth at 100 µM (MDA-MB-435): 25%
GI50 (TK-10 [7]; read-out: GI50): 5.37 µM
CC50 (TK-10 [7]; [9]): > 100 µM
TGI (TK-10 [7]; read-out: TGI): > 100 µM
GI50 (TK-10 [7]; read-out: pGI50 (converted)): 5.37 µM
CC50 (TK-10 [7]; [10]): > 100 µM
TGI (TK-10 [7]; read-out: pTGI (converted)): > 100 µM
growth at 100 µM (NCI-H460): 8%
growth at 0.1 µM (MCF7): 90%
growth at 1 µM (M14): 80%
growth at 1 µM (BT-549): 90%
growth at 1 µM (HOP-92): 56%
growth at 1 µM (IGROV-1): 108%
GI50 (RXF 393; read-out: GI50): 2410 nM
CC50 (RXF 393; [9]): > 100 µM
TGI (RXF 393; read-out: TGI): 9.93 µM
GI50 (RXF 393; read-out: pGI50 (converted)): 2400 nM
CC50 (RXF 393; [10]): > 100 µM
TGI (RXF 393; read-out: pTGI (converted)): 10 µM
growth at 0.01 µM (SK-MEL-5): 90%
GI50 (SF-268 [8]; read-out: GI50): 5.96 µM
LC50 (SF-268 [8]; read-out: LC50): > 100 µM
TGI (SF-268 [8]; read-out: TGI): > 100 µM
GI50 (SF-268 [8]; read-out: pGI50 (converted)): 6.03 µM
LC50 (SF-268 [8]; read-out: pLC50 (converted)): > 100 µM
TGI (SF-268 [8]; read-out: pTGI (converted)): > 100 µM
